Counter-ions that a name gives are not always drawn.
Key:
[1] = target: hERG (human ether-à-go-go-related gene) channel expressed in CHO cells (Homo sapiens, UniProt Q12809); test: ScreenPatch assay, hERG ion channel block (SyncroPatch 384PE patch clamp); details: for Methadone Active Agent/Methadone Ratio (hERG IC50): IC50 relative to racemic methadone HCl
[2] = Maximally tolerated dose study by oral gavage administration

hERG (human ether-à-go-go-related gene) channel expressed in CHO cells, sequence (Q12809 whole entry): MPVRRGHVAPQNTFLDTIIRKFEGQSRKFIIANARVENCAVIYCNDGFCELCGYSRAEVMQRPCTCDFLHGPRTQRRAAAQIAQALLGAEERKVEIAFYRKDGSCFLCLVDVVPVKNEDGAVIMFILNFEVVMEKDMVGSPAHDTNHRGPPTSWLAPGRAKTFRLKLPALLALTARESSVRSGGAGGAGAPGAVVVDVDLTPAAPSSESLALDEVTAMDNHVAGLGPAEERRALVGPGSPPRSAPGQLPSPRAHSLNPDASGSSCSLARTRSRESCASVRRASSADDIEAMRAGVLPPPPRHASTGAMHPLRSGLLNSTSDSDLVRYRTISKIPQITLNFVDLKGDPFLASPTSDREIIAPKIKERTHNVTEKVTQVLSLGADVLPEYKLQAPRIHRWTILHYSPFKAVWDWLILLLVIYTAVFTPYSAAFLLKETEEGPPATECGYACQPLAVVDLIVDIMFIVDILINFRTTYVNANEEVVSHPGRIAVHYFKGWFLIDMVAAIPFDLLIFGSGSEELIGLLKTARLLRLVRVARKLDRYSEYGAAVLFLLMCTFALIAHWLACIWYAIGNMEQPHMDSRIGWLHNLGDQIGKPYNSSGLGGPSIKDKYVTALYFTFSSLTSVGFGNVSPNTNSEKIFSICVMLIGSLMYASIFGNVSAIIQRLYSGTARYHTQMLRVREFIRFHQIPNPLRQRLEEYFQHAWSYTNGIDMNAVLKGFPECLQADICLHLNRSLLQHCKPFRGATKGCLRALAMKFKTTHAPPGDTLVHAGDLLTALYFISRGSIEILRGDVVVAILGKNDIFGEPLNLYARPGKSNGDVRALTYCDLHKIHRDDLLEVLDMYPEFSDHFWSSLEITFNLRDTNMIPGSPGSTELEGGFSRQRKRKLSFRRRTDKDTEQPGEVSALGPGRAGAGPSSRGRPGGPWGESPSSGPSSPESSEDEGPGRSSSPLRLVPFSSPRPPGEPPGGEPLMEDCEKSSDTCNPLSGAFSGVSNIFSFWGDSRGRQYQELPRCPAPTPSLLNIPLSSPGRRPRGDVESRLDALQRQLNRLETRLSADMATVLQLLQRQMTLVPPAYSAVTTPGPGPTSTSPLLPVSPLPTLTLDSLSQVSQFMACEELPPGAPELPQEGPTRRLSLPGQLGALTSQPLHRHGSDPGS

With `C/C=C(/OC(=O)N(C)C(C)CNC(=O)[C@H](CCCNC(=N)N)NC(=O)c1ccccc1)C(C[C@@H](C)N(C)C)(c1ccccc1)c1ccccc1.O=C(O)C(F)(F)F` (stereo partly drawn) [Levo 1ME active agent, (R)-6-(dimethylamino)-4,4-diphenylhept-2-en-3-yl (1-((S)-2-benzamido-5-guanidinopentanamido)propan-2-yl)(methyl)carbamate 2,2,2-trifluoroacetate] the IC50 [1] was > 100 µM, the “Methadone Active Agent/Methadone Ratio (hERG IC50)” value [1] was >53 and the clinical observations ([2]; doses up to 100 mg/kg) was “did not have any clinical observations”.
`CCC(=O)C(CC(C)N(C)C)(c1ccccc1)c1ccccc1` (racemic) [Racemic Methadone HCl, Methadone] gave an IC50 [1] of 1.89 µM.
With `C/C=C(/OC(=O)N(C)CCCCNC(=O)[C@H](CCCNC(=N)N)NC(=O)c1ccccc1)C(C[C@@H](C)N(C)C)(c1ccccc1)c1ccccc1.O=C(O)C(F)(F)F` [Levo-Butyl active agent, (R)-6-(dimethylamino)-4,4-diphenylhept-2-en-3-yl (4-((S)-2-benzamido-5-guanidinopentanamido)butyl)(methyl)carbamate 2,2,2-trifluoroacetate] the IC50 [1] was 51.5 µM, the “Methadone Active Agent/Methadone Ratio (hERG IC50)” value [1] was 27.3 and the clinical observations ([2]; 100 mg/kg and 125 mg/kg) was “no clinical observations through 72 hr period or limited observations”. For the same molecule, the clinical observations ([2]; 50 and 75 mg/kg) was “some observations”.
For `C/C=C(/OC(=O)N(C)C[C@@H](C)NC(=O)[C@H](CCCNC(=N)N)NC(=O)c1ccccc1)C(C[C@@H](C)N(C)C)(c1ccccc1)c1ccccc1.O=C(O)C(F)(F)F` [Levo 2RME active agent, (R)-6-(dimethylamino)-4,4-diphenylhept-2-en-3-yl ((R)-2-((S)-2-benzamido-5-guanidinopentanamido)propyl)(methyl)carbamate 2,2,2-trifluoroacetate], the IC50 [1] was 29.4 µM, the “Methadone Active Agent/Methadone Ratio (hERG IC50)” value [1] was 15.6 and the clinical observations ([2]; 100 mg/kg and 125 mg/kg) was “no clinical observations through 72 hr period or limited observations”. The clinical observations ([2]; 50 and 75 mg/kg) was “some observations”.

Reference: patent publication US20260226000A1, “Methadone Active Agents and Methods of Use Thereof” (Ensysce Biosciences Inc., priority 2023, published 2026)
